In patent US4537723A, “Derivatives of leukotrienes A and C” (The Upjohn Company, priority 1983, dated 1985):

Test system: SRS-A formation in rat mononuclear cells
Assay: SRS-A formation in rat mononuclear cells incubated with cysteine and challenged with a calcium ionophore
Assay type: cell-based
Conditions: 10 μg/ml; for inhibition at 10 µg/mL: Rattus norvegicus, read-out: effectiveness in preventing the synthesis of SRS-A
Method: As an example of the SRS-A inhibitory activity of the compounds of this invention, several of these compounds were evaluated in a standard laboratory test. This test is conducted in rat mononuclear cells incubated in the presence of cysteine and challenged with a calcium ionophore (which induces SRS-A formation). In this test system, two of these compounds, the isomers of 1-carboxy-3-N-octylcyclopropane-2-octanoic acid.

Compound	inhibition at 10 µg/mL [%]	inhibition of the synthesis of SRS-A (rat mononuclear cells, calcium ionophore challenge)
CCCCCCCCC([Se]c1ccccc1)C(O)CCCCCCCC(=O)O (stereo not drawn) [9-Hydroxy-10-Phenylselenyloctadecanoic Acid]	100	
CCCCCCCCC(O)C(CCCCCCCC(=O)O)[Se]c1ccccc1 (stereo not drawn) [9-Phenylselenyl-10-Hydroxyoctadecanoic Acid]	100	
CCCCCCCCC1C(CCCCCCCC(=O)O)C1C(=O)O (stereo not drawn) [Example 4, 1-Carboxy-3-n-Octylcyclopropane-2-Octanoic Acid]		totally inhibited
